According to patent publication US20180028487A1, “DERMATOLOGICAL FORMULATIONS OF 2-(2-ETHOXY-2-OXOETHYL)(METHYL)AMINO-2-OXOETHYL 5-(TETRADECYLOXY)FURAN-2-CARBOXYLATE” (Dermira Inc., priority 2016, published 2018):

Tests used:
[1] = Solubility in solvents / vehicle; format: physicochemical
Source text: In various embodiments, the dermatologically acceptable vehicle comprises dimethyl isosorbide and one or more alcohols. […] DMI is freely miscible with alcohols such as ethanol, isopropanol (IPA), polyols such as polyethylene glycol (PEG 200 or PEG 400), or a mixture thereof. By adjusting the relevant amounts of DMI and the alcohol(s), the solubility and saturation of the active ingredient in the dermatological formulation can be adjusted to maximize the thermodynamic activity of the active ingredient in the gel. In a specific embodiment, the dermatologically acceptable vehicle comprises, by weight ratios, 50 parts ethanol, 20 parts IPA, 15.5 parts PEG400, and 12.5 parts DMI. The vehicle is typically a clear gel, and bears the same appearance with or without the active ingredient.
In certain embodiment, the crystalline product form is a white crystalline solid with a low-melting point (64-66° C.), having solubility of about 90 mg/g (±5 mg/g) in a solvent system comprising Ethanol/IPA/PEG 400/DMI at 50/20/15.5/12.5 (w/w).

[2] = Dose range study, safety and tolerability (Example 5); format: in vivo, human; conditions: 4.0% QD, 7.5% QD and 7.5% BID, 12-week treatment period
Description: Safety was assessed through adverse events (AEs), local skin responses (LSRs, determined by the presence and severity of erythema, dryness, peeling, burning/stinging, and pruritus), laboratory tests (serum chemistry, and hematology), vital signs, and physical examinations.

[3] = test system: acne vulgaris on the face; test: Dose range study, efficacy (Example 5); format: in vivo, human; conditions: for LS mean change in noninflammatory lesion counts: Week 12; for LS mean change in inflammatory lesion counts / percentage of subjects achieving minimum 2-grade improvement in IGA score: baseline to Week 12
Description: Dose ranges were determined in adult subjects with acne vulgaris on the face. The study was a randomized, vehicle controlled, parallel group study designed to assess the efficacy and safety of the active formulations comprising a compound of Formula (Ia) at a concentration of 7.5% BID, 7.5% QD, and 4.0% QD, respectively. The results were compared to those of vehicle formulation (BID or QD) on subjects with moderate to severe facial acne. A total of 420 adult subjects were randomized to active formulations (7.5% BID, 7.5% QD, and 4.0% QD) and vehicle (BID and QD) in a 2:2:2:1:1 fashion. Study treatments continued for 12 weeks. Subjects returned to the study clinic at Weeks 1, 2 (phone call only), 4, 8 and 12 (study exit). Primary efficacy endpoints for this study were 1) the mean absolute change from baseline to Week 12 in inflammatory and noninflammatory lesion counts and 2) the proportion of subjects who achieved a 2-grade improvement in the IGA from baseline to Week 12. Absolute change from baseline to Week 12 in inflammatory and non-inflammatory lesion counts was analyzed using an analysis of covariance (ANCOVA) model with a factor of treatment and the respective baseline lesion count as a covariate. The proportion of subjects who are dichotomized to success (minimum 2-grade improvement from baseline in IGA score) at Week 12 was analyzed using a Cochran-Mantel-Haenszel (CMH) test. Exploratory analyses were conducted for linearity of a dose response for the proportion of subjects dichotomized to an IGA success.

[4] = Dose range study, pharmacokinetics: plasma concentrations (Example 5); format: in vivo, human; conditions: for systemic absorption: topical application at 7.5% strength, twice daily for 12 weeks
Description: A subset of study centers enrolled subjects for an assessment of PK. Blood was to be collected from approximately 10 subjects per treatment group. At the Day 1 and Week 8 visits, a predose blood sample was collected prior to the first application of study drug for the day; samples were then collected at 1, 2, 3, and 4 hours after application of study drug.

[5] = Stability studies on non-GMP and GMP material; format: physicochemical
Description: Stability studies conducted on non-GMP and GMP material have shown chemical stability the compound of Formula (Ia) for 24 months at 5° C. and 25° C./60% Relative Humidity (RH); and for 6 months at 40° C./75% RH.

[6] = cited from earlier work

## CCCCCCCCCCCCCCOc1ccc(C(=O)OCC(=O)N(C)CC(=O)OCC)o1 [Formula (Ia), 2-((2-ethoxy-2-oxoethyl)(methyl)amino)-2-oxoethyl 5 (tetradecyloxy) furan-2-carboxylate]
[1]; crystalline product form, solvent system Ethanol/IPA/PEG 400/DMI at 50/20/15.5/12.5 (w/w)
  solubility: about 90 mg/g
[1]; in dimethyl isosorbide (DMI)
  solubility: about 125 mg/g
[2]
  tolerability: well tolerated
[3]; 4.0% QD
  LS mean change in noninflammatory lesion counts: −15.3
  LS mean change in inflammatory lesion counts: −14.6
  percentage of subjects achieving minimum 2-grade improvement in IGA score: 21.6%
[3]; 7.5% BID
  LS mean change in noninflammatory lesion counts: −17.5
  LS mean change in inflammatory lesion counts: −15.0
  percentage of subjects achieving minimum 2-grade improvement in IGA score: 25.9%
[3]; 7.5% QD
  LS mean change in noninflammatory lesion counts: −13.4
  LS mean change in inflammatory lesion counts: −14.5
[4]; Day 1, topical, all but one subject
  plasma concentration of Compound of Formula (Ia): undetectable
[4]; Week 8, all tested subjects
  plasma concentration of Compound of Formula (Ia): undetectable
[4]; human, plasma, topical, Day 1, one subject, one time point (2 hours post-dosing), read-out: plasma concentration of Compound of Formula (Ia)
  concentration at 2 h: 0.304 ng/mL
[4]
  systemic absorption: little or no
[5]; 5° C.
  chemical stability: 24 months
  stability of the crystal form: up to 36 months
[5]; 25° C./60% RH
  stability of the crystal form: up to 36 months
[5]; 25° C./60% Relative Humidity (RH)
  chemical stability: 24 months
[5]; 30° C./65% RH
  stability of the crystal form: up to 27 months
[5]; 40° C./75% RH
  chemical stability: 6 months

## CCCCCCCCCCCCCCOc1ccc(C(=O)O)o1 [TOFA, 5-(tetradecyloxy)-2-furoic acid, reference compound]
[6]
  bioavailability through the skin: poor
[4]
  systemic absorption: little or no
